# Laboratory results reported in the supplement of paper PMC10307832.
# Assays:
# Assay in all cases: relative viability (nuclei count vs DMSO), 5 days (fraction); higher = more cells survive
# A-427 = test system: A-427
# In short: (§1)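 A single step with final 0.05% Triton X-100, 1% formaldehyde and 1 ug/ml Hoechst fixed the cells and stained nuclei 5 days after treatment. Lung cancer cell lines in 1536-well plates had been treated by pin tool the day after seeding with one drug alone or a fixed anchor-drug dose plus five library-drug doses (not always all listed) in √10 steps, and nuclei were counted on 4× images. Relative viability is the ratio of nuclei in treated wells to nuclei in vehicle wells, taken as the median of duplicate plates.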
# ABC-1 = test system: ABC-1
# In short: as §1
# COR-L23 = test system: COR-L23
# In short: as §1
# EMC-BAC-2 = test system: EMC-BAC-2
# In short: as §1
# HARA = test system: HARA
# In short: as §1
# HOP-62 = test system: HOP-62
# In short: as §1
# LK-2 = test system: LK-2
# In short: as §1
# LXF-289 = test system: LXF-289
# In short: as §1
# NCI-H1792 = test system: NCI-H1792
# In short: as §1
# NCI-H1793 = test system: NCI-H1793
# In short: as §1
# NCI-H1944 = test system: NCI-H1944
# In short: as §1
# NCI-H1993 = test system: NCI-H1993
# In short: as §1
# NCI-H2009 = test system: NCI-H2009
# In short: as §1
# NCI-H2170 = test system: NCI-H2170
# In short: as §1
# NCI-H2228 = test system: NCI-H2228
# In short: as §1
# NCI-H3122 = test system: NCI-H3122
# In short: as §1
# NCI-H596 = test system: NCI-H596
# In short: as §1
# NCI-H727 = test system: NCI-H727
# In short: as §1
# PC-3 [JPC-3] = test system: PC-3 [JPC-3]
# In short: as §1
# SK-LU-1 = test system: SK-LU-1
# In short: as §1
# SK-MES-1 = test system: SK-MES-1
# In short: as §1
# SW 1573 = test system: SW 1573
# In short: as §1
structure (smiles),measurement,setting,value
CC1(C)CCC(c2ccc(Cl)cc2)=C(CN2CCN(c3ccc(C(=O)NS(=O)(=O)c4ccc(N[C@H](CCN5CCOCC5)CSc5ccccc5)c(S(=O)(=O)C(F)(F)F)c4)cc3)CC2)C1 [Navitoclax] + CS(=O)(=O)N1CCN(Cc2cc3nc(-c4cccc5[nH]ncc45)nc(N4CCOCC4)c3s2)CC1 [Pictilisib] (partner 1 µM),relative viability,A-427; first compound 0.005 µM,0.675
same,relative viability,A-427; first compound 0.01581 µM,0.675
same,relative viability,A-427; first compound 0.05 µM,0.659
same,relative viability,A-427; first compound 0.1581 µM,0.753
same,relative viability,A-427; first compound 0.5 µM,0.799
same,relative viability,ABC-1; first compound 0.005 µM,0.795
same,relative viability,ABC-1; first compound 0.01581 µM,1
same,relative viability,ABC-1; first compound 0.05 µM,0.686
same,relative viability,ABC-1; first compound 0.1581 µM,0.64
same,relative viability,ABC-1; first compound 0.5 µM,0.616
same,relative viability,COR-L23; first compound 0.005 µM,0.733
same,relative viability,COR-L23; first compound 0.01581 µM,0.919
same,relative viability,COR-L23; first compound 0.05 µM,0.818
same,relative viability,COR-L23; first compound 0.1581 µM,0.763
same,relative viability,COR-L23; first compound 0.5 µM,0.932
same,relative viability,EMC-BAC-2; first compound 0.005 µM,0.506
same,relative viability,EMC-BAC-2; first compound 0.01581 µM,0.646
same,relative viability,EMC-BAC-2; first compound 0.05 µM,0.565
same,relative viability,EMC-BAC-2; first compound 0.1581 µM,0.548
same,relative viability,EMC-BAC-2; first compound 0.5 µM,0.6
same,relative viability,HARA; first compound 0.005 µM,0.389
same,relative viability,HARA; first compound 0.01581 µM,0.372
same,relative viability,HARA; first compound 0.05 µM,0.384
same,relative viability,HARA; first compound 0.1581 µM,0.425
same,relative viability,HARA; first compound 0.5 µM,0.381
same,relative viability,HOP-62; first compound 0.005 µM,0.803
same,relative viability,HOP-62; first compound 0.01581 µM,0.921
same,relative viability,HOP-62; first compound 0.05 µM,0.5
same,relative viability,HOP-62; first compound 0.1581 µM,0.769
same,relative viability,HOP-62; first compound 0.5 µM,1.17
same,relative viability,LK-2; first compound 0.005 µM,0.612
same,relative viability,LK-2; first compound 0.01581 µM,0.559
same,relative viability,LK-2; first compound 0.05 µM,0.536
same,relative viability,LK-2; first compound 0.1581 µM,0.657
same,relative viability,LK-2; first compound 0.5 µM,0.511
same,relative viability,LXF-289; first compound 0.005 µM,0.821
same,relative viability,LXF-289; first compound 0.01581 µM,0.872
same,relative viability,LXF-289; first compound 0.05 µM,0.737
same,relative viability,LXF-289; first compound 0.1581 µM,0.799
same,relative viability,LXF-289; first compound 0.5 µM,0.768
same,relative viability,NCI-H1792; first compound 0.005 µM,0.307
same,relative viability,NCI-H1792; first compound 0.01581 µM,0.283
same,relative viability,NCI-H1792; first compound 0.05 µM,0.163
same,relative viability,NCI-H1792; first compound 0.1581 µM,0.285
same,relative viability,NCI-H1792; first compound 0.5 µM,0.29
same,relative viability,NCI-H1793; first compound 0.005 µM,0.317
same,relative viability,NCI-H1793; first compound 0.01581 µM,0.505
same,relative viability,NCI-H1793; first compound 0.05 µM,0.301
same,relative viability,NCI-H1793; first compound 0.1581 µM,0.226
same,relative viability,NCI-H1793; first compound 0.5 µM,0.242
same,relative viability,NCI-H1944; first compound 0.005 µM,0.336
same,relative viability,NCI-H1944; first compound 0.01581 µM,0.371
same,relative viability,NCI-H1944; first compound 0.05 µM,0.374
same,relative viability,NCI-H1944; first compound 0.1581 µM,0.357
same,relative viability,NCI-H1944; first compound 0.5 µM,0.397
same,relative viability,NCI-H1993; first compound 0.005 µM,0.808
same,relative viability,NCI-H1993; first compound 0.01581 µM,0.853
same,relative viability,NCI-H1993; first compound 0.05 µM,0.803
same,relative viability,NCI-H1993; first compound 0.1581 µM,0.792
same,relative viability,NCI-H1993; first compound 0.5 µM,0.925
same,relative viability,NCI-H2009; first compound 0.005 µM,0.771
same,relative viability,NCI-H2009; first compound 0.01581 µM,1.09
same,relative viability,NCI-H2009; first compound 0.05 µM,0.961
same,relative viability,NCI-H2009; first compound 0.1581 µM,0.898
same,relative viability,NCI-H2009; first compound 0.5 µM,0.979
same,relative viability,NCI-H2170; first compound 0.005 µM,0.306
same,relative viability,NCI-H2170; first compound 0.01581 µM,0.327
same,relative viability,NCI-H2170; first compound 0.05 µM,0.334
same,relative viability,NCI-H2170; first compound 0.1581 µM,0.243
same,relative viability,NCI-H2170; first compound 0.5 µM,0.203
same,relative viability,NCI-H2228; first compound 0.005 µM,0.431
same,relative viability,NCI-H2228; first compound 0.01581 µM,0.526
same,relative viability,NCI-H2228; first compound 0.05 µM,0.367
same,relative viability,NCI-H2228; first compound 0.1581 µM,0.366
same,relative viability,NCI-H2228; first compound 0.5 µM,0.304
same,relative viability,NCI-H3122; first compound 0.005 µM,0.592
same,relative viability,NCI-H3122; first compound 0.01581 µM,0.585
same,relative viability,NCI-H3122; first compound 0.05 µM,0.537
same,relative viability,NCI-H3122; first compound 0.1581 µM,0.601
same,relative viability,NCI-H3122; first compound 0.5 µM,0.55
same,relative viability,NCI-H596; first compound 0.005 µM,0.405
same,relative viability,NCI-H596; first compound 0.01581 µM,0.399
same,relative viability,NCI-H596; first compound 0.05 µM,0.398
same,relative viability,NCI-H596; first compound 0.1581 µM,0.308
same,relative viability,NCI-H596; first compound 0.5 µM,0.218
same,relative viability,NCI-H727; first compound 0.005 µM,0.398
same,relative viability,NCI-H727; first compound 0.01581 µM,0.423
same,relative viability,NCI-H727; first compound 0.1581 µM,0.33
same,relative viability,NCI-H727; first compound 0.5 µM,0.171
same,relative viability,PC-3 [JPC-3]; first compound 0.005 µM,0.648
same,relative viability,PC-3 [JPC-3]; first compound 0.01581 µM,0.701
same,relative viability,PC-3 [JPC-3]; first compound 0.05 µM,0.87
same,relative viability,PC-3 [JPC-3]; first compound 0.1581 µM,0.678
same,relative viability,PC-3 [JPC-3]; first compound 0.5 µM,0.75
same,relative viability,SK-LU-1; first compound 0.005 µM,0.557
same,relative viability,SK-LU-1; first compound 0.01581 µM,0.725
same,relative viability,SK-LU-1; first compound 0.05 µM,0.499
same,relative viability,SK-LU-1; first compound 0.1581 µM,0.522
same,relative viability,SK-LU-1; first compound 0.5 µM,0.483
same,relative viability,SK-MES-1; first compound 0.005 µM,0.458
same,relative viability,SK-MES-1; first compound 0.01581 µM,0.48
same,relative viability,SK-MES-1; first compound 0.05 µM,0.355
same,relative viability,SK-MES-1; first compound 0.1581 µM,0.321
same,relative viability,SK-MES-1; first compound 0.5 µM,0.334
same,relative viability,SW 1573; first compound 0.005 µM,0.466
same,relative viability,SW 1573; first compound 0.01581 µM,0.54
same,relative viability,SW 1573; first compound 0.05 µM,0.464
same,relative viability,SW 1573; first compound 0.1581 µM,0.389
same,relative viability,SW 1573; first compound 0.5 µM,0.503
